Measured values from patent US8628781B2, “Prevention and treatment of cast nephropathy” (The UAB Research Foundation, priority 2010, dated 2014).
Entries after “also recorded” stand apart in the source; their conditions may differ. Bridges are numbered along the chain shown (N, C = ends). Where no end group is shown, it is not given here.

Assays:
Tamm-Horsfall protein [1] = target: T1, Tamm-Horsfall protein (Homo sapiens, UniProt P07911); test: Competitive ELISA: peptide inhibition of Tamm-Horsfall protein binding to immunoglobulin light chains bound in microtiter wells; conditions: for inhibition of binding between Tamm-Horsfall protein and human light chains (in words): six human light chains (λ2, 3 and 5 and κ3, 6, and 7), FIG. 7; for inhibition of binding of Tamm-Horsfall protein to immunoglobulin light chain (in words): uncyclized and cyclized peptide, FIG. 5
Text: Peptides known to react with the Tamm-Horsfall protein in the yeast two-hybrid assay were synthesized, cyclized, and used as inhibitors in a competitive ELISA experiment. The peptides were cyclized by adding cysteine residues to the amino and carboxyl-terminal portions of the peptides and generating an intramolecular disulfide bridge (FIG. 4). Cyclization facilitates formation of the loop structure in solution. Both the linear and cyclized peptides inhibited the binding of the Tamm-Horsfall protein to the immunoglobulin light chains bound in the wells of the microtiter plate, but the efficiency of inhibition was increased by cyclization of the peptide inhibitor.
(§1) Mutation of the CDR3 sequence to disrupt the loop structure by substituting amino acid residues with phenyalanine confirmed that the secondary structure was an important determinant of binding (FIG. 6). The inhibitory capability of cyclized experimental (CLSADSSGSYLYVC (SEQ ID NO:32)) and control (CLSAFSFGFYLYVC (SEQ ID NO:33)) peptides were then compared in a competitive ELISA assay.

Tamm-Horsfall protein [2] = test: Yeast two-hybrid assay of CDR3 inserts ligated between Framework 2 and Framework 3 of LKPBLL53; type: binding, human; conditions: FIG. 6, N=7
Text: Addition of the framework regions permits each CDR3, which was ligated into the construct using Sma1 and BamH1, to achieve proper folding into a loop structure. […] The CDR3 domain of ITPBLL2 differed from the CDR3 domain of ITPBLL1 (SEQ ID NO:28) by only two amino acids (underlined), which were sufficient to inhibit formation of a loop structure, and, thus, binding to the Tamm-Horsfall protein. […] N=6 experiments for each group.
Among those CDR3 domains that were predicted to form a loop, affinity for the Tamm-Horsfall protein was strong and correlated with that observed using the intact VL from the parent light chain.
as §1

[3] = system: rat model of cast nephropathy; test: Rat model of cast nephropathy by administration of human kappa and lambda light chains; type: in vivo; conditions: rats given human kappa and lambda light chains
Description: The competitor peptides, SEQ ID NO:1 and SEQ ID NO:2, have been used in a rat model of cast nephropathy, which employed administration of human kappa and lambda light chains. […] Rats were injected intraperitoneally with 40 mg of cyclized competitor peptide, SEQ ID NO:2 (pep), or vehicle alone (veh) just prior to intraperitoneal injection of 100 mg of human kappa or lambda light chain purified from patients who had multiple myeloma and kidney damage. On the following day, rats also received an additional injection of competitor peptides, SEQ ID NO:1 (20 mg) or vehicle. Rats were examined three days after the initial injection.

Tamm-Horsfall protein [4] = target: T1, Tamm-Horsfall protein; test: Competition studies of synthetic CDR3 peptide with light chains from myeloma patients for binding to Tamm-Horsfall protein; conditions: six different immunoglobulin light chains from patients with myeloma and cast nephropathy
Text: The yeast two-hybrid system was employed to determine the site on the immunoglobulin light chain that interacted with the Tamm-Horsfall protein. Using 248- and 787-base pair fragments of the Tamm-Horsfall protein, which contained the previously described immunoglobulin light chain-binding domain, the interaction with unique immunoglobulin light chains that represented a variety of the known isotypes of κ and λ immunoglobulin light chains was examined. […] While this was considered an advance, this peptide was not considered to bind avidly enough to the Tamm-Horsfall protein to serve as an effective inhibitor in vivo.

CLSAFSFGFYLYVC (disulfide 1-14 (inferred)) [cyclized control peptide, reference compound]
inhibition of binding between Tamm-Horsfall protein and human light chains (in words) (Tamm-Horsfall protein [1]): did not effectively inhibit binding

LSAFSFGSYLYV [ITPBLL86 CDR3 mutated with two phenylalanines]
interaction of wildtype and phenylalanine-mutated CDR3 sequence with Tamm-Horsfall protein (in words) (Tamm-Horsfall protein [2]): none of the mutated sequences interacted

QSYDNTLSGSYVF [peptide 1, QSYDNTLSGSYVF]
effect on cast formation, acute renal failure and renal function (in words) [3]: prevented cast formation and acute renal failure and improved renal function | inhibition of binding of Tamm-Horsfall protein to immunoglobulin light chain (in words) (Tamm-Horsfall protein [1]): inhibit binding

LSADSSGSYLYVF [peptide 2, LSADSSGSYLYVF]
effect on cast formation, acute renal failure and renal function (in words) [3]: prevented cast formation and acute renal failure and improved renal function | inhibition of binding of Tamm-Horsfall protein to immunoglobulin light chain (in words) (Tamm-Horsfall protein [1]): inhibit binding

LSAFSFGFYLYV [ITPBLL86 CDR3 mutated with three phenylalanines]
interaction of wildtype and phenylalanine-mutated CDR3 sequence with Tamm-Horsfall protein (in words) (Tamm-Horsfall protein [2]): none of the mutated sequences interacted

MQGTHWPPLT [synthetic peptide identical to the CDR3 region of SSH23]
competition with light chains for binding to Tamm-Horsfall protein (in words) (Tamm-Horsfall protein [4]): effectively competed

CLSADSSGSYLYVC (disulfide 1-14 (inferred)) [cyclized experimental peptide]
inhibition of binding between Tamm-Horsfall protein and human light chains (in words) (Tamm-Horsfall protein [1]): completely prevented the binding; also recorded: very efficient inhibitor

LSAFSSGSYLYV [ITPBLL86 CDR3 mutated with one phenylalanine]
interaction of wildtype and phenylalanine-mutated CDR3 sequence with Tamm-Horsfall protein (in words) (Tamm-Horsfall protein [2]): none of the mutated sequences interacted

LSADSSGSYLYV
interaction of wildtype and phenylalanine-mutated CDR3 sequence with Tamm-Horsfall protein (in words) (Tamm-Horsfall protein [2]): interacted strongly
